Results: patent US20230056497A1, “CD206 Modulators Their Use and Methods for Preparation” (The United States of America, As Represented by the …, priority 2019, published 2023)
Read-outs that look alike come from different tables or passages of the source. Blank lines part the entries; values can stand above or below the molecule they belong to.

Columns and labels:
[1] = test system: M2 macrophages; assay: Anti-cell viability screening: reduction of M2 macrophage cell viability (Percentage Relative Cell Viability versus Log Molar Concentration); type: cell-based
Method: Assays were conducted in a 96-well black solid-bottom plate with a final assay volume of 100 μL.

[2] = test system: M2 polarized macrophages with intact CD206 (wild type) versus isogenic M2 polarized macrophages lacking the CD206 receptor; assay: Cell viability in M2 polarized macrophages with intact CD206 versus isogenic macrophages lacking CD206; type: cell-based
[3] = test system: murine M2 macrophages; assay: M1 markers in murine M2 macrophages by quantitative flow cytometry; type: cell-based; conditions: 20 μM for 2 hours
[4] = Pharmacokinetics (PK) profile, plasma concentration versus time; type: in vivo
[5] = test system: RAW264.7 macrophages polarized into M1 and M2; assay: Induction of phagocytosis, autophagy and apoptosis in RAW264.7 macrophages polarized into M1 and M2; type: cell-based, murine
Description: (§1) Induction of phagocytosis, autophagy, and apoptosis was studied in two in vitro models using M1 and M2 macrophages. […] FIGS. 12A to 12E illustrate this selectivity. […] FIGS. 13A to 13C illustrate this selectivity

[6] = test system: murine M1 macrophages and M2 macrophages; assay: Induction of phagocytosis, autophagy and apoptosis in bone marrow derived macrophages (BMDM), M1 versus M2, relative fluorescence; type: cell-based
Description: as §1

[7] = test system: CD206 negative control cell lines (DC2.4, fibroblast HTT, non-polarized RAW264.7, KPC cancer cells); assay: Cell viability in a panel of CD206 negative control cell lines; type: cell-based
Description: (§2) Similar selectivity is observed in dendritic cell DC2.4 viability (FIG. 9B), fibroblast HTT viability (FIG. 9C), RAW cell viability (FIG. 9D), and KPC viability (FIG. 9E).

[8] = test system: Kras(G12D)/Trp53(R172H)/Pdx-1-Cre (KPC) mice (murine pancreatic cancer model); assay: In vivo testing in transgenic KPC mice, tumor growth; conditions: compared to vehicle
Description: Tumor growth was suppressed during in vivo testing of Compound 1 in fully immune-competent transgenic Kras(G12D)/Trp53(R172H)/Pdx-1-Cre (KPC) mice (murine pancreatic cancer model) compared to vehicle as shown in FIG. 3B. This point was further illustrated in FIGS. 3A and 3C where comparison of tumor volume for mice treated with Compound-1 and untreated mice (vehicle) is shown.

[9] = molecular target: T1, recombinant human CD206 protein (UniProt ID P22897-1) (Homo sapiens, UniProt P22897); assay: Electron microscopy of recombinant CD206 incubated with compound, particles scored closed versus open; type: binding; conditions: 30 minutes at 1 μM
T1 sequence (P22897 19-1456): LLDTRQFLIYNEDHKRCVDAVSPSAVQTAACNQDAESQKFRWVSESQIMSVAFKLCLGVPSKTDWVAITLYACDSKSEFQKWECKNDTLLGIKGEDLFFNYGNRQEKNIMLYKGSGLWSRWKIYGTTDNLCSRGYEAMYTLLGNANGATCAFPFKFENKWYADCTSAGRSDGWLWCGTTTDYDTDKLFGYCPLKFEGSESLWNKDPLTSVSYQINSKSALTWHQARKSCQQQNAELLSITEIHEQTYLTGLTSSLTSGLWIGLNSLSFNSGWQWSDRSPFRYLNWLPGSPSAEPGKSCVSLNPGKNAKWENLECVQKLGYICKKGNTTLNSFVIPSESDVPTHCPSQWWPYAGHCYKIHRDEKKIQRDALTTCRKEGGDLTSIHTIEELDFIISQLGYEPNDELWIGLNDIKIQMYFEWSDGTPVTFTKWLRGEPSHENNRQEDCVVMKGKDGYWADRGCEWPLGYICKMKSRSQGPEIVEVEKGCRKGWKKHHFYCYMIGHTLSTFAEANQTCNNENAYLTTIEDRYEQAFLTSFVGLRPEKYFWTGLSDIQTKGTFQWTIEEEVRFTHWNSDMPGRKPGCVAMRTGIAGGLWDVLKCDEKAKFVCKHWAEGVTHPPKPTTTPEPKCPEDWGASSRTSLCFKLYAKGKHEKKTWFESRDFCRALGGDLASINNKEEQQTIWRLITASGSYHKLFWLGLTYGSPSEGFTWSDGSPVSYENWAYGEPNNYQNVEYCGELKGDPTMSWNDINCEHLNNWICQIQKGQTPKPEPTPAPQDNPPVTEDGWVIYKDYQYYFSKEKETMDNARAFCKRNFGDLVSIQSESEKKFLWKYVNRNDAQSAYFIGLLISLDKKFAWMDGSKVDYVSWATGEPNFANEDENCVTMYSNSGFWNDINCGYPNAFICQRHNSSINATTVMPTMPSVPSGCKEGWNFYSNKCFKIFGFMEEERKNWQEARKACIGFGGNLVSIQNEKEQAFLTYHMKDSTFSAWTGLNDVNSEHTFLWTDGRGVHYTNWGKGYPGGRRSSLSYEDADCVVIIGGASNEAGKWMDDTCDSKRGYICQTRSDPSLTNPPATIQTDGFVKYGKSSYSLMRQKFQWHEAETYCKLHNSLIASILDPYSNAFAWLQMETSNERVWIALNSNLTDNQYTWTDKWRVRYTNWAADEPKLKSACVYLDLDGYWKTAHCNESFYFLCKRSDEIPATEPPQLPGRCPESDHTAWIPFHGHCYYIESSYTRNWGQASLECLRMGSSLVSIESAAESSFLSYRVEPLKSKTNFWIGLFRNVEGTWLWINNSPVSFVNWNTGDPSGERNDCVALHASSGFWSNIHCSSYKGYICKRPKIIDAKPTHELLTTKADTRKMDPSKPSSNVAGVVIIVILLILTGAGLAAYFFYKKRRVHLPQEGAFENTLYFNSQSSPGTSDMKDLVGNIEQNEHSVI
Method: FIGS. 11A and 11B illustrate conformational change on CD206 when incubated with Compound 1.

[10] = test system: M2 macrophages; assay: Cancer cell phagocytosis by M1 and M2 macrophages, relative quantitative fluorescence; type: cell-based; conditions: M2 versus M1 macrophages
Description: FIGS. 14A to 14B illustrate this selectivity towards M2 macrophages.

[11] = test system: KPC allograft tumors grown in C57BL/6 mice; assay: M2 macrophages adaptive transfer study in KPC allograft model; type: in vivo; conditions: intratumoral injections 3 times a week, compared to vehicle
[12] = test system: human CD206^high M2 macrophages; assay: Cell viability assay of human macrophages; type: cell-based; conditions: derived from healthy volunteers, compared to M1-like macrophages
Description: as §2

[13] = test system: KPC tumors; assay: Quantitative flow cytometry of autochthonous KPC tumors (intratumoral immune landscape); type: in vivo, mice
[14] = Macrophage, figure legends and text, read-out: IC50, macrophage activity (Percentage Relative Cell Viability versus Log Molar Concentration) (converted)
[15] = Macrophage, Table 2, read-out: IC50
[16] = CD11b+F4/80+Gr-1 negative cells

SMILES: CC(=O)Nc1ccc(NC(=O)c2ccc(-c3ncc4cnc(-c5ccccc5)cn34)cc2)cc1 [Compound 5, N-(4-acetamidophenyl)-4-(6-phenylimidazo[1,5-a]pyrazin-3-yl)benzamide]
IC50 [1, 14]: 7.36 µM

SMILES: O=C(NCCCO)c1ccc(-c2ncc3cnc(-c4cccc(F)c4)cn23)cc1 [Compound 9, 4-(6-(3-fluorophenyl)imidazo[1,5-a]pyrazin-3-yl)-N-(3-hydroxypropyl)benzamide]
IC50 [1, 14]: 0.73 µM

SMILES: CC(=O)c1c(C)oc2ccc(N(C(=O)Oc3ccccc3)[S+](=O)(O)c3ccccc3)cc12 [Compound 3]
IC50 [1, 15]: 3.88 µM | M2 Selectivity ([1]; Table 2): Yes | CD206 dependence of macrophage activity [2]: CD206 dependent

SMILES: O=C(c1cc2ccccc2[nH]1)N1CCc2c(n(Cc3cccnc3)n(CCc3ccccc3)c2=O)C1 [Compound 2]
M1 markers (percent positive cell fractions) [3]: induction of M1 markers in M2 macrophages | IC50 [1, 15]: 4.59 µM | M2 Selectivity ([1]; Table 2): Yes | CD206 dependence of macrophage activity [2]: CD206 dependent

concentration at 0.157 h ([4]; IP (intraperitoneal), 20 mg/kg): 7890 nM | concentration at 0.5 h ([4]; IP (intraperitoneal), 20 mg/kg): 7600 nM | concentration at 1 h ([4]; IP (intraperitoneal), 20 mg/kg): 11100 nM | concentration at 1.5 h ([4]; IP (intraperitoneal), 20 mg/kg): 12800 nM | concentration at 2 h ([4]; IP (intraperitoneal), 20 mg/kg): 5840 nM | concentration at 4 h ([4]; IP (intraperitoneal), 20 mg/kg): 3020 nM | concentration at 7 h ([4]; IP (intraperitoneal), 20 mg/kg, 7.0 h): 540 nM | concentration at 0.157 h ([4]; PO (Per Os, oral), 30 mg/kg): 11 nM | concentration at 0.5 h ([4]; PO (Per Os, oral), 30 mg/kg): 16 nM | concentration at 1 h ([4]; PO (Per Os, oral), 30 mg/kg): 23 nM | concentration at 1.5 h ([4]; PO (Per Os, oral), 30 mg/kg): 190 nM | concentration at 2 h ([4]; PO (Per Os, oral), 30 mg/kg): 163 nM | concentration at 4 h ([4]; PO (Per Os, oral), 30 mg/kg): 11 nM | PK profile ([4]; liver, and pancreas, oral and IP injection): excellent PK profile | CD206 particles in a closed state [9]: 48% | CD206 particles in open state [9]: 52%
SMILES: O=C(NCCc1cnc[nH]1)c1ccc(-c2ncc3cnc(-c4ccccc4)cn23)cc1 [Compound 1, N-(2-(1H-imidazol-5-yl)ethyl)-4-(6-phenylimidazo[1,5-a]pyrazin-3-yl)benzamide]
M1 markers (percent positive cell fractions) [3]: induction of M1 markers in M2 macrophages | IC50 [1, 15]: 2.86 µM | IC50 [1, 14]: 2.86 µM | M2 Selectivity ([1]; Table 2): Yes | selectivity to induce phagocytosis, autophagy, and apoptosis ([5]; RAW264.7 cell in vitro model): excellent selectivity to induce phagocytosis, autophagy, and apoptosis in M2 but not in M1 macrophages | induction of apoptosis ([5]; compared to vehicle): induces apoptosis in M2 macrophages | induction of autophagy ([5]; compared to vehicle): induces autophagy in M2 macrophages | induction of phagocytosis ([5]; compared to vehicle): induces phagocytosis in M2 macrophages | selectivity to induce phagocytosis, autophagy, and apoptosis ([6]; BMDM in vitro model): excellent selectivity to induce phagocytosis, autophagy, and apoptosis in M2 but not in M1 macrophages | induction of apoptosis ([6]; M1 versus M2): induces apoptosis in M2 but not in M1 macrophages | induction of autophagy ([6]; M1 versus M2): induces autophagy in M2 but not in M1 macrophages | induction of early phagocytosis ([6]; M1 versus M2): induces early phagocytosis in M2 but not in M1 macrophages | induction of phagocytosis ([6]; M1 versus M2): induces phagocytosis in M2 but not in M1 macrophages | induction of phagolysosome formation ([6]; M1 versus M2): induces phagolysosome formation in M2 but not in M1 macrophages | dose response in induction of phagocytosis ([6]; murine M2 macrophages treated for 24 hours): full dose response | selectivity versus CD206 negative control cell lines [7]: selective for the CD206^high M2 macrophages | Tumor growth [8]: suppressed | binding to CD206 and conformation of the receptor [9]: binds to CD206 and induces a conformational switch of the receptor | binding to CD206 and conformation of the receptor ([9]; listed as Example 38): induces the closed conformation of the CD206 receptor | CD206 dependence of macrophage activity [2]: CD206 dependent | cancer cell phagocytosis [10]: increases cancer cell phagocytosis in M2 but not in M1 macrophages | Tumor growth after intratumoral injection of pretreated M2 macrophages [11]: reduction of tumor | activity in human CD206^high M2 macrophages [12]: active | CD206 positive cells within tumor associated macrophage population [13, 16]: reduction of CD206 positive cells | Signal regulatory protein α (SIRPα) of tumor associated macrophages [13, 16]: reduction of the innate checkpoint Signal regulatory protein α (SIRPα) | CD206 macrophages in tumors (percent positive cell fractions of total cells) ([13]; compared to vehicle): reduction of CD206 macrophages | M2 to M1 macrophage shift in tumors ([13]; compared to vehicle): shift from CD206^high M2 to CD86-positive M1 macrophages | intratumoral CD8 cells ([13]; compared to vehicle): increase in intratumoral CD8 cells | M1 markers in intratumoral M1 and M2 macrophage populations ([13]; treatment for three weeks in KPC mice, compared to vehicle): induction of M1 markers

SMILES: O=C(NCCCn1ccnc1)c1ccc(-c2ncc3cnc(-c4ccccc4)cn23)cc1 [Compound 6, N-(3-(1H-imidazol-1-yl)propyl)-4-(6-phenylimidazo[1,5-a]pyrazin-3-yl)benzamide]
IC50 [1, 14]: 3.85 µM

SMILES: CN(C)CCNC(=O)c1ccc(-c2ncc3cnc(-c4ccccc4)cn23)cc1 [Compound 7, N-(2-(dimethylamino)ethyl)-4-(6-phenylimidazo[1,5-a]pyrazin-3-yl)benzamide]
IC50 [1, 14]: 3.13 µM

SMILES: NC(=O)c1ccc(-c2ncc3cnc(-c4cccc(F)c4)cn23)cc1 [Compound 8, 4-(6-(3-fluorophenyl)imidazo[1,5-a]pyrazin-3-yl)benzamide]
IC50 [1, 14]: 0.45 µM

SMILES: O=C(NCCN1CCOCC1)c1ccc(-c2ncc3cnc(-c4ccccc4)cn23)cc1 [Compound 4, N-(2-Morpholinoethyl)-4-(6-phenylimidazo[1,5-a]pyrazin-3-yl)benzamide]
IC50 [1, 14]: 8.95 µM

SMILES: O=C(NCCCN1CCCC1=O)c1ccc(-c2ncc3cnc(-c4ccccc4)cn23)cc1 [Compound 28, N-(3-(2-oxopyrrolidin-1-yl)propyl)-4-(6-phenylimidazo[1,5-a]pyrazin-3-yl)benzamide]
cancer cell phagocytosis [10]: increases cancer cell phagocytosis in M2 but not in M1 macrophages

SMILES: CC(=O)NCCNC(=O)c1ccc(-c2ncc3cnc(-c4cccc(F)c4)cn23)cc1 [Compound 10, N-(2-acetamidoethyl)-4-(6-(3-fluorophenyl)imidazo[1,5-a]pyrazin-3-yl)benzamide]
IC50 ([1]; figure legends and text, read-out: IC50, macrophage activity (Percentage Relative Cell Viability versus Log Molar Concentration) (converted)): 5.45 µM
